Source: US7179818B2, “Substituted aminoquinuclidine compounds” (Ortho-McNeil Pharmaceutical, Inc., priority 2002, dated 2007)
Structures can show the parent of a compound that is named as a salt. Where two headings read alike, the source gives them in different places.

Columns and labels:
[1] = target: T1, δ-opioid receptor (Rattus norvegicus, UniProt P33533); test: Rat brain δ-opioid receptor binding assay ([3H]DPDPE); conditions: for δ-Opioid Receptor Binding, Inhibition at 1 μM: single concentration 1 μM
T1 construct: from tissue; host or cells: rat (Wistar) forebrain homogenate, particulate preparation
T1 sequence (P33533 whole entry): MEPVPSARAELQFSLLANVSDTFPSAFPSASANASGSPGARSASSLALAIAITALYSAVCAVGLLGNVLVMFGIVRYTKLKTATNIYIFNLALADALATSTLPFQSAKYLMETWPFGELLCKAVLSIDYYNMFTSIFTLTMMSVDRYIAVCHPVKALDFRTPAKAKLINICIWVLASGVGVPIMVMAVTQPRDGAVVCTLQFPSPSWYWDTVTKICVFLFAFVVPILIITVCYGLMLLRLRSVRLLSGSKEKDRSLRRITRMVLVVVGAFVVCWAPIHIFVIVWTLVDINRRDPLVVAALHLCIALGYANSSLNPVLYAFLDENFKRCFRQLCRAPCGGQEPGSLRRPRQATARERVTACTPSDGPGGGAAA
Protocol: (§1) Male, Wistar rats (150–250 g, VAF, Charles River, Kingston, N.Y.) are killed by cervical dislocation, and their brains removed and placed immediately in ice cold Tris HCl buffer (50 mM, pH 7.4). The forebrains are separated from the remainder of the brain by a coronal transection, beginning dorsally at the colliculi and passing ventrally through the midbrain-pontine junction. After dissection, the forebrains are homogenized in Tris buffer in a Teflon®-glass homogenizer. The homogenate is diluted to a concentration of 1 g of forebrain tissue per 100 mL Tris buffer and centrifuged at 39,000×G for 10 min. The pellet is resuspended in the same volume of Tris buffer with several brief pulses from a Polytron homogenizer. This particulate preparation is used for the δ-opioid binding assays. Following incubation with the δ-selective peptide ligand [^3H]DPDPE at 25° C., the tube contents are filtered through Whatman GF/B filter sheets on a Brandel cell harvester. The tubes and filters are rinsed three times with 4 mL of 10 mM HEPES (pH 7.4), and the radioactivity associated with the filter circles determined using Formula 989 scintillation fluid (New England Nuclear, Boston, Mass.) in a scintillation counter.
The data are used to calculate either the % inhibition compared to control binding (when only a single concentration of test compound is evaluated) or a Ki value (when a range of concentrations are tested).
% Inhibition was calculated as: […]
(§2) Ki value is calculated using the LIGAND (Munson, P. J. and Rodbard, D., Anal. Biochem. 107: 220–239, 1980) data analysis program.

[2] = target: T2, μ-opioid receptor (Rattus norvegicus, UniProt P33535); test: Rat brain μ-opioid receptor binding assay ([3H]DAMGO)
T2 construct: from tissue; host or cells: rat (Wistar) forebrain homogenate, particulate preparation
T2 sequence (P33535 whole entry): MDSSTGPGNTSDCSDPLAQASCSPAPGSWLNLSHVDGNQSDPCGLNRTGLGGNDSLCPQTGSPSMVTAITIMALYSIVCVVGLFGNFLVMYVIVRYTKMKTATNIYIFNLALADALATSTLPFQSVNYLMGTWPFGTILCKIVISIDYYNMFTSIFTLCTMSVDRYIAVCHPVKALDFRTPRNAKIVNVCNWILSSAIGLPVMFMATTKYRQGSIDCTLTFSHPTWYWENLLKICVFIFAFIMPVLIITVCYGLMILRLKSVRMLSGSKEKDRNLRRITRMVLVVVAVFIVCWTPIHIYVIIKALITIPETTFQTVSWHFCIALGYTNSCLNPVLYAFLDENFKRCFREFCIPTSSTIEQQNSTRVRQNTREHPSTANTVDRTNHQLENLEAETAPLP
Protocol: as §1, with “Chades” for “Charles”, “dislocation” for “dislocation,”, “μ-opioid” for “δ-opioid”, “Following incubation with the δ-selective peptide ligand [^3H]DPDPE at 25° C., the tube contents are filtered through Whatman GF/B filter sheets on a Brandel cell harvester.” left out, “7.4)” for “7.4),”
The data are used to calculate either the % inhibition compared to control binding (when only a single concentration of test compound is evaluated) or a Ki value (when a range of concentrations is tested).
% Inhibition is calculated as: […]
as §2

[3] = tested on: acetylcholine bromide-induced abdominal constriction response; test: Mouse acetylcholine bromide-induced abdominal constriction assay (MAIT); type: in vivo; conditions: 150 μmole/Kg p.o., acetylcholine bromide 5.5 mg/kg i.p. 30 min later
Protocol: The mouse acetylcholine-induced abdominal constriction assay, as described by Collier et al. in Brit. […] The test drugs or appropriate vehicles were administered orally (p.o.) and 30 min later the animal received an intraperitoneal (i.p.) injection of 5.5 mg/kg acetylcholine bromide (Matheson, Coleman and Bell, East Rutherford, N.J.). The mice were then placed in groups of three into glass bell jars and observed for a ten min observation period for the occurrence of an abdominal constriction response (defined as a wave of constriction and elongation passing caudally along the abdominal wall, accompanied by a twisting of the trunk and followed by extension of the hind limbs). For compounds of the present invention, the percent inhibition of this response to a nociceptive stimulus (equated to °/analgesia) was calculated as follows:
[formula] • CAR: Control Animal Responses • DTAR: Drug-Treated Animal Responses

[4] = rat forebrain membranes, [3H]DPDPE, 25° C., read-out: δ-Opioid Receptor Binding Ki
[5] = rat forebrain membranes, [3H]DAMGO, 25° C., read-out: μ-Opioid Receptor Binding Ki
[6] = rat forebrain membranes, [3H]DPDPE

Molecule	Ki [1] [µM]	Ki [2] [µM]	MAIT % Inhibition [3] [%]	also measured
CCN(CC)C(=O)c1ccc(N(Cc2ccccc2)C2CN3CCC2CC3)cc1 (centres unmarked) (as salt: fumarate) (hydrate or solvate) [Compound 16, N,N-Diethyl-4-[phenylmethyl-(1-azabicyclo[2.2.2]octan-3-amino)]benzamide Fumarate Hydrate [1:1.5:1]]				melting point: 107 to 110 °C
CCN(CC)C(=O)c1ccc(N(Cc2ccccc2F)C2CN3CCC2CC3)cc1 (centres unmarked) (as salt: fumarate) (hydrate or solvate) [Compound 18]				melting point: 193 to 196 °C
CCN(CC)C(=O)c1ccc(N(Cc2cccc(Cl)c2)C2CN3CCC2CC3)cc1 (centres unmarked) (as salt: fumarate) [Compound 17]				melting point: 193 to 196 °C
CCN(CC)C(=O)c1ccc(N(c2ccccc2)[C@H]2C3CCN(CC3)[C@@H]2C)cc1 [Compound 8, N,N-Diethyl-4-[phenyl-(trans-2-methyl-1-azabicyclo[2.2.2]octan-3-amino)]benzamide Fumarate Hydrate [1:1:0.5]]				Ki [1, 4]: 0.026 µM; Ki [2, 5]: 1.34 µM
CCN(CC)C(=O)c1ccc(N(Cc2ccccc2)C2CN3CCC2CC3)cc1 (centres unmarked) [Compound 16, N,N-Diethyl-4-[phenylmethyl-(1-azabicyclo[2.2.2]octan-3-amino)]benzamide Fumarate Hydrate [1:1.5:1]]	0.05	1.92	50	
CCN(CC)C(=O)c1ccc(N(Cc2cccc(Cl)c2)C2CN3CCC2CC3)cc1 (centres unmarked) [Compound 17]	0.021	0.914	16.7	
CCN(CC)C(=O)c1ccc(N(Cc2ccccc2F)C2CN3CCC2CC3)cc1 (centres unmarked) [Compound 18]	0.039	1.16	28.6	
CCN(CC)C(=O)c1ccc(N(Cc2cccc(F)c2)C2CN3CCC2CC3)cc1 (centres unmarked) [Compound 19]	0.0055	1.12	18.2	
CCN(CC)C(=O)c1ccc(N(Cc2ccccc2)[C@H]2CN3CCC2CC3)cc1 [Compound 20, (−)-(R)-N,N-Diethyl-4-[phenylmethyl-(1-azabicyclo[2.2.2]octan-3-amino)]benzamide Fumarate Hydrate [1:1.5:1]]	0.011	1.24	57.1	
CCN(CC)C(=O)c1ccc(N(Cc2ccccc2)[C@@H]2CN3CCC2CC3)cc1 [Compound 21, (+)-(S)-N,N-Diethyl-4-[phenylmethyl-(1-azabicyclo[2.2.2]octan-3-amino)]benzamide Fumarate Hydrate [1:1.5:1]]	0.02	2.55	35.720	
N,N-Diethyl-4-[(3,5-dichlorophenyl)-(1-azabicyclo[2.2.2]octan-3-amino)]benzamide Hydrochloride [Compound 7, N,N-Diethyl-4-[(3,5-dichlorophenyl)-(1-azabicyclo[2.2.2]octan-3-amino)]benzamide Hydrochloride [1:1]]				δ-Opioid Receptor Binding, Inhibition at 1 μM [1, 6]: <50%
N,N-Diethyl-4-[(3-thiomethylphenyl)-(trans-2-methyl-1-azabicyclo[2.2.2]octan-3-amino)]benzamide Fumarate [Compound 10, N,N-Diethyl-4-[(3-thiomethylphenyl)-(trans-2-methyl-1-azabicyclo[2.2.2]octan-3-amino)]benzamide Fumarate [1:1.5]]			25	
N,N-Diethyl-4-[(3-trifluoromethylphenyl)-(1-azabicyclo[2.2.2]octan-3-amino)]benzamide Hydrochloride [Compound 4, N,N-Diethyl-4-[(3-trifluoromethylphenyl)-(1-azabicyclo[2.2.2]octan-3-amino)]benzamide Hydrochloride [1:1]]				δ-Opioid Receptor Binding, Inhibition at 1 μM [1, 6]: <50%
N,N-Diethyl-4-[phenyl-(1-azabicyclo[2.2.2]octan-3-amino)]-3-chlorobenzamide Fumarate [Compound 13, N,N-Diethyl-4-[phenyl-(1-azabicyclo[2.2.2]octan-3-amino)]-3-chlorobenzamide Fumarate [1:1]]				Ki [1, 4]: 0.88 µM
N,N-Diethyl-4-[phenyl-(1-azabicyclo[2.2.2]octan-3-amino)]-3-fluorobenzamide Fumarate [Compound 11, N,N-Diethyl-4-[phenyl-(1-azabicyclo[2.2.2]octan-3-amino)]-3-fluorobenzamide Fumarate [1:1]]				Ki [1, 4]: 0.255 µM; Ki [2, 5]: 8.33 µM
N,N-Diethyl-4-[phenyl-(1-azabicyclo[2.2.2]octan-3-amino)]-3-methylbenzamide Fumarate [Compound 12, N,N-Diethyl-4-[phenyl-(1-azabicyclo[2.2.2]octan-3-amino)]-3-methylbenzamide Fumarate [1:1]]				Ki [1, 4]: 0.608 µM; Ki [2, 5]: 10 µM
N,N-Diethyl-4-[phenyl-(1-azabicyclo[2.2.2]octan-3-amino)]benzamide Fumarate [Compound 1, N,N-Diethyl-4-[phenyl-(1-azabicyclo[2.2.2]octan-3-amino)]benzamide Fumarate [1:1]]			55.6	
N,N-Diethyl-4-[phenyl-(cis-2-methyl-1-azabicyclo[2.2.2]octan-3-amino)]benzamide [Compound 9]			20	
N-Morpholino-4-[phenyl-(1-azabicyclo[2.2.2]octan-3-amino)]benzamide Fumarate [Compound 15, N-Morpholino-4-[phenyl-(1-azabicyclo[2.2.2]octan-3-amino)]benzamide Fumarate [1:1]]				δ-Opioid Receptor Binding, Inhibition at 1 μM [1, 6]: <50%
N-pyrrolidinyl-4-[(4-methoxyphenyl)-(1-azabicyclo[2.2.2]octan-3-amino)]benzamide Fumarate [Compound 14, N-pyrrolidinyl-4-[(4-methoxyphenyl)-(1-azabicyclo[2.2.2]octan-3-amino)]benzamide Fumarate [1:1]]				δ-Opioid Receptor Binding, Inhibition at 1 μM [1, 6]: <50%
